Laboratory results as given in paper PMC7185853 (Fish & Shellfish Immunology, 2015).

Tested on: VHSV
Test: Inhibition of in vitro VHSV infection of ZF4 cells
Type: cell-based, viral haemorrhagic septicemia virus VHSV- 07.71
Details: for VHSV-inhibiting concentrations lower than those of the SERPINe1-derived peptide: ZF4 cells, duplicates (Fig. 3)

Molecule: O=C(O[C@@H]1Cc2c(O)cc(O)cc2O[C@@H]1c1cc(O)c(O)c(O)c1)c1cc(O)c(O)c(O)c1 [EGCG]
- VHSV-inhibiting concentrations lower than those of the SERPINe1-derived peptide: ~50 fold

Molecule: O=C(O)C(=O)c1cn(Cc2ccccc2)c2ccc(-c3ccc(OC(F)(F)F)cc3)cc12 [tiplaxtinin]
- VHSV-inhibiting concentrations lower than those of the SERPINe1-derived peptide: ~50 fold

Molecule: tannic acid
- Inhibition of VHSV infectivity in vitro (68 μg per ml (∼40 μM), ZF4 cells (Fig. 3)): ~95%
- VHSV-inhibiting concentrations lower than those of the SERPINe1-derived peptide: ~50 fold
